{
  "source": "patent US9072751B2",
  "about": "“Na/K-ATPase ligand” (priority 2006, dated 2015)",
  "key": {"[1]": {"test_system": "isolated cardiac fibroblasts", "assay": "Procollagen stability after cycloheximide in cardiac fibroblasts", "type": "cell-based, rat", "details": "10 nM", "experimental": "(§1) To further examine the molecular basis of this cardiac fibrosis, isolated cardiac fibroblasts were subjected to increase doses of MBG (10^−10, 10^−9, and 10^−8 M). […] Using collagenase digestion, we observed that the vast majority of the proline incorporation was into collagen. Using standardized RT-PCR, we observed a doubling of mRNA for collagen-1 at 24 hours in response to 10 nM of MBG.\n(§2) Representative Western blot for procollagen and quantitative densitometric data obtained in response to different doses of (a) MBG (all N=10), (b) MBG 10 nM contrasted with different doses of ouabain (0.1 to 100 nM) and digoxin (10 nM; all N=8). c, ouabain sensitive Rb uptake as a function of MBG and ouabain concentration (N=4 at each concentration for both MBG and ouabain; data expressed as fraction of control). d, relative proline incorporation in the supernatant and matrix, both will and without collagenase digestion (total). Each group (controls and different doses of MBG) contains N=7 replicants. The difference between the total and after collagenase digestion is reported as collagen. […] Bars on quantitative graphs represent the mean.+−.SEM. *P<0.05 and **P<0.01 vs control."}, "[2]": {"assay": "Plasma MBG and aldosterone 4 weeks after MBG minipump infusion in rats", "type": "in vivo, Sprague-Dawley rats", "details": "mean ± SEM", "experimental": "(§3) Male, Sprague-Dawley rats were used for all of the studies. All of the animal experimentation described in the article was conducted in accordance with the National Institutes of Health Guide for the Care and use of Laboratory Animals using protocols approved by the Medical University of Ohio Institutional Animal Use and Care Committee.\n(§4) Briefly, Sprague-Dawley rats weighing.apprxeq.250 g at the time of surgery were subjected to either sham surgery with no MBG infusion (Sham), sham surgery with placement of a minipump infusing MBG at 10 μg/kg per day (MBG), PNx, and PNx after immunization against MBG (PNx-IM). MBG of extremely high purity (>99%) was isolated from the venom of Bufa marinas by Kennedy et al. In addition to these maneuvers, a group of PNx animals was subjected to adrenalectomy as well (PNx-ADx).\n(§5) (determined after extraction on a C-18 column using DELPHIA as described previously), aldosterone (determined with ELISA kit 10004377, Cayman Chemical) and cardiac immunohistochemistry (vida infra) were assessed 4 weeks after surgery."}, "[3]": {"test_system": "isolated cardiac fibroblasts", "assay": "Radiolabeled proline incorporation into collagen (collagen synthesis) in cardiac fibroblasts", "type": "cell-based, rat", "details": "10^−9 and 10^−8 M", "experimental": "Preparation of adult rat cardiac fibroblasts was performed as described previously by Brilla et al. with modifications.\nCollagen synthesis rates were determined by the method of Nishida et al. with modification.\nas §1\nRepresentative Western blot for procollagen and quantitative densitometric data obtained in response to different doses of (a) MBG (all N=10), (b) MBG 10 nM contrasted with different doses of ouabain (0.1 to 100 nM) and digoxin (10 nM; all N=8). c, ouabain sensitive Rb uptake as a function of MBG and ouabain concentration (N=4 at each concentration for both MBG and ouabain; data expressed as fraction of control). d, relative proline incorporation in the supernatant and matrix, both will and without collagenase digestion (total). Each group (controls and different doses of MBG) contains N=7 replicants. The difference between the total and after collagenase digestion is reported as collagen. The matrix is the sample that was obtained after removing supernatant and scraping the culture dish. e, mRNA for collagen 1 in MBG-treated (10 nM; N=8) or control (N=8) fibroblasts. f, procollagen stability after cycloheximide treatment. Time 0 is 1 hour after incubation with cycloheximide (20 μg/mL). […] Least-square regression line fit to control (CTL) and MBG data. Bars on quantitative graphs represent the mean.+−.SEM. *P<0.05 and **P<0.01 vs control.\nThe effects of PP2 (1 μmol/L), herbimycin (1 μmol/L), AG1478 (250 nM), and N-acetyl cysteine (2.5 mmol/L) on MBG (10 nM) stimulation of procollagen expression also were found. The PP2, herbimycin AG1478, and N-acetyl cysteine were administered from 2 hours before the addition of MBG and continued throughout the 24 hours of MBG incubation (total of 26 hours). Each bar represents the mean.+−.SEM of n=8 experiments. b, effects of PP2 (1 μmol/L) and N-acetyle cysteine (2.5 mmol/L) on MBG (10 nM)-stimulated proline incorporation into collagen. Again, the PP2 an N-acetyl cysteine were added 2 hours before exposure to MBG. Each bar represents the mean.+−.SEM of N=5 experiments. c, effects of MBG 10 nM on procollagen content in SYF and SYF+ cells. Representative Western blots are shown above quantitative data. SYF blots loaded with 15 μg of protein and SYF+blots loaded with 10 μg of protein. Each bar represents the mean.+−SEM of N-6 determinations In each group. **[…] vs. control.\nThe effect of 24 hours of MBG (1 and 10 nM) on TGF-β, Smad 2/3, Smad 4, and pSmad 2/3 expression determined by Western blot. b and c, effects of 24 hours of MBG (10 nM), TGFβ(5 ng/mL), and the TGF-β receptor antagonist SB431542 ([…] on procollagen-1 expression (Western blot) and radiolabeled proline incorporation, respectively also were carried out. SB431542 was added 2 hours before exposure to either TGFβ or MBG (total of 26-hour exposure). Each bar represents the mean.+−.SEM of 6 to 8 determinations. *P<0.05, **P<0.01 vs. control."}, "[4]": {"test_system": "Sprague-Dawley rats", "assay": "Blood pressure, left ventricular hemodynamics (Millar catheter) and heart size 4 weeks after MBG infusion", "type": "in vivo", "experimental": "as §3, §4, §5\nIn the current in vivo studies we observed that MBG levels were increased in PNx- and MBG-treated rats compared with sham-operated controls. […] Using the Millar pressure/volume sensor catheter rather than echocardiography in our previous report, we observed that PNx induced decreases in end systolic volume and end diastolic volume, as well as increased ejection fraction compared with sham-operated controls. The end systolic volume and end diastolic volume were greater, and the ejection factor values were lower in PNX-IM as compared with PNx. […] Using pressure volume loops generated during vena cava occlusions, we noted that the end diastolic pressure volume relationship (an inverse measurement of passive compliance) was increased in PNx- and MBG-treated animals compared with controls, whereas […] ha a lower end diastolic pressure volume relationship than PNx."}, "[5]": {"test_system": "isolated cardiac fibroblasts", "assay": "Collagen-1 mRNA by standardized RT-PCR in cardiac fibroblasts", "type": "cell-based, rat", "details": "24 hours, 10 nM", "experimental": "Standardized RT-PCR was used to measure gene expression, with GAPDH transcript used as the housekeeping gene, as reported previously.\nas §1, §2"}, "[6]": {"test_system": "dermal fibroblasts", "assay": "Collagen expression in human dermal fibroblasts", "type": "cell-based", "details": "5 or 10 nM", "from_the_text": "We next examined whether skin fibroblasts lines had similar response. This was done with dermal fibroblasts kindly provided by Dr. Bashar Kahaleh. […] The magnitude of this response is illustrated by comparison to maximal doses of TGFβ, the “classic” stimulus for fibrosis (see below). In addition, we observed that an immortalized fibroblast line responded similarly to MBG, ouabain and digoxin.\nResponse of dermal fibroblasts to MBG as compared with TGF beta. Note that increase in collagen expression in MBG is approximately 10 fold with 5 or 10 nM MBG."}, "[7]": {"details": "MBG infusion, 4 weeks, mean ± SEM"}},
  "data": [
    {"smiles": "C[C@]12CC[C@H](O)C[C@@]1(O)CC[C@@H]1[C@@H]2CC[C@]2(C)[C@@H](c3ccc(=O)oc3)C[C@H]3O[C@]132", "note": "[MBG, marinobufagenin]", "values": [
      {"measurement": "Procollagen stability (procollagen-1 expression after cycloheximide)", "setting": "[1]", "result": "did not detect any increases"},
      {"measurement": "Plasma MBG", "setting": "[2]; MBG infusion 10 μg/kg per day by minipump", "result": "484 ± 47", "unit": "pmol/L"},
      {"measurement": "Plasma aldosterone", "setting": "[2]; MBG infusion 10 μg/kg per day", "result": "205 ± 35", "unit": "pg/mL"},
      {"measurement": "Proline incorporation into total protein, matrix and supernatant", "setting": "[3]", "result": "significant increases"},
      {"measurement": "Ejection fraction", "setting": "[4]; [7]", "result": "68 ± 2", "unit": "%"},
      {"measurement": "End diastolic volume", "setting": "[4]; [7]", "result": "162 ± 14", "unit": "µL"},
      {"measurement": "End systolic volume", "setting": "[4]; [7]", "result": "60 ± 6", "unit": "µL"},
      {"measurement": "Heart rate (Tall cuff measurements)", "setting": "[4]; [7]", "result": "367 ± 9", "unit": "bpm"},
      {"measurement": "Heart weight/body weight ratio", "setting": "[4]; [7]", "result": "2.8 ± 0.1", "unit": "g/kg"},
      {"measurement": "Systolic blood pressure (Tall cuff measurements)", "setting": "[4]; [7]", "result": "136 ± 4", "unit": "mm Hg"},
      {"measurement": "EDPVRX1000", "setting": "[4]; end diastolic pressure volume relationship, MBG infusion, 4 weeks, mean ± SEM", "result": "41 ± 6", "unit": "mm Hg/μL"},
      {"measurement": "τ", "setting": "[4]; time constant of isovolumic relaxation, MBG infusion, 4 weeks, mean ± SEM", "result": "11.3 ± 0.3", "unit": "ms"},
      {"measurement": "Ventricular myocyte cross-sectional area", "setting": "[4]; trichrome images, MBG infusion vs sham", "result": "marked increases"},
      {"measurement": "mRNA for collagen-1", "setting": "[5]", "result": "doubling"},
      {"measurement": "Increase in collagen expression", "setting": "[6]", "result": "approximately 10 fold"}
    ]}
  ]
}
